Experimental data as given in patent US7666868B2, “N-sulphonylpyrroles and their use as histone deacetylase inhibitors” (4SC AG, priority 2005, dated 2010).

What was measured:
[1] = tested on: histone H3 acetylation (lysine 9+14) in HeLa cervical carcinoma cells; experiment: Cellular histone H3 acetylation assay; assay type: cell-based; conditions: Homo sapiens, 24 h incubation with compound, read-out: EC50 (histone H3 acetylating cellular potency)
Text: To assess the cellular efficacy of an histone deactylase inhibitor in vitro, an assay is set up in black clear-bottom 96-well plates and optimized for use on the Cellomics “ArrayScan II” platform for a quantitative calculation of histone acetylation. The protocol uses a polyclonal rabbit antibody, specifically binding to acetylated lysine 9+14 of human histone H3 on fixed cells with an Alexa Fluor 488 labeled goat ant rabbit-IgG used for counterstaining (modified from Braunger et al. MCR annual conference 2003, Abstract 4556).
5×10^3 HeLa cervical carcinoma cells/well (ATCC CCL-2) in 200 μl Dulbecco's modified Eagle's medium (DMEM) containing 10% fetal calf serum are seeded at day 1 in Packard view plates and incubated for 24 h under standard cell culture conditions. On day 2, 2 μl test compound (100× final concentration) is added and incubation continued for further 24 h. On day 3, the culture medium is discarded and attached cells fixed for 15 min at room temperature by addition of 100 μl fixation buffer (3.7% v:v formaldehyde in phosphate buffered saline/PBS). After discarding the fixation buffer and one wash with PBS, cells are permeabilized at room temperature by addition of 100 μl/well permeabilization buffer (30.8 mM NaCl, 0.54 mM Na2HPO4, 0.31 mM KH2PO4, 5% v:v Triton X-100) for 15 min at room temperature. After discarding the permeabilization buffer and washing twice with 100 μl/well blocking solution (PBS with 0.05% v:v Tween 20 and 5% w:v milk powder) at room temperature, the 1st antibody (anti-K9+14 histone H3 antibody, Calbiochem No. 382158) in blocking solution (50 μl/well) is added. After incubation for 1 h at 37° C., the wells are washed twice at room temperature with 100 μl/well blocking solution before addition of the 2nd antibody (goat-anti-rabbit Alexa Fluor 488; MoBiTec No. A-11008) in blocking solution (50 μl/well). After further incubation for 1 h at 37° C., wells are washed twice with 100 μl/well blocking solution room temperature. Finally, 100 d/well PBS are added and image analysis performed on the Cellomics “ArrayScan II” platform. For calculation of EC50 values, the nuclear fluorescence in cells treated with and without a reference HDAC inhibitor (eg NVP-LBH-589) are taken as a positive and negative control. For EC50 determination, the percentage of positive cells is determined and EC50 calculation done from concentration-effect curves by means of non-linear regression.

EC50 [1] | melting point | SMILES
27 to 4400 nM | 215 to 217 °C | O=C(/C=C/c1ccn(S(=O)(=O)c2cc(-c3ccccc3)ccc2CCCN2CCOCC2)c1)NO [Compound 45, (E)-N-Hydroxy-3-{1-[4-(3-morpholin-4-yl-propyl)-biphenyl-3-sulfonyl]-1H-pyrrol-3-yl}-acrylamide]
27 to 4400 nM | 118 to 119 °C | O=C(/C=C/c1ccn(S(=O)(=O)c2cc(-c3ccccc3)ccc2CNC2CC2)c1)NO [Compound 63, (E)-3-[1-(4-Cyclopropylaminomethyl-biphenyl-3-sulfonyl)-1H-pyrrol-3-yl]-N-hydroxy-acrylamide]
